Test results reported in US5977088A (priority 1995, dated 1999).
Entries after “also recorded” stand apart in the source; their conditions may differ. Counter-ions that a name gives are not always drawn. Like-named read-outs stand apart in the source and are kept apart here.

How the values were obtained:
[1] = Chronic conditions - evaluations of patients treated with […] hyaluronic acid with 3% diclofenac acid (HD); format: in vivo, human (patients); conditions: single patient
[2] = system: Fisher Bladder Carcinoma tumor tissue; test: Intratumour injection study, radioactivity in tumor tissue; format: in vivo, Fisher 344 rat; conditions: intratumor injection; 1 h, 6 h
Method: Animal: Fisher 344 rat, male 200-250g b. […] These drugs were administrated by intratumor injection. […] At the same time, injection into normal skin (on the left frank) was carried out similarly.

[3] = Intratumour injection study, radioactivity in normal skin; format: in vivo, Fisher 344 rat; conditions: injection into normal skin; 1 h, 6 h
Method: Animal: Fisher 344 rat, male 200-250g At the same time, injection into normal skin (left frank) was carried out similarly. […] At the same time, injection into normal skin (on the left frank) was carried out similarly.

[4] = Intravenous injection, radioactivity in liver; format: in vivo, Fisher 344 rat; design: unit not given beside the values; conditions: mean ± S.E.
[5] = system: Fisher Bladder Carcinoma tumor tissue; test: Intravenous injection, radioactivity in tumor tissue; conditions: mean ± S.E., FIG. 5 plots CPM
Method: (§1) Tumor (2 mm viable tumor fragment) was transplanted subcutaneously on the right frank by trocar
(§2) Treatment was started when tumor size is about 1.5 cm.(2 weeks after implantation.) . . . tumor weight: 1.0+0.3 g
(§3) The drug was administered Intravenously (through the penile vein)
(§4) Group A: 5-FU 20 mg/kg (3H-5-FU30 μCi)+saline
(§5) Tumor was surgically removed (and blood was collected) at *predeterminated time after drug administration. Tumor weight was measured (and blood was centrifuged to obtain a plasma sample.)
(§6) *15 min, 60 min, 3 hr, 4 hrs, . . . after drug administration . . . .
(§7) Radioactivity level in tumor tissue was counted, using a liquid scintillation counter.

[6] = Topical treatment of back pain in a patient with kyphosis; conditions: applied to back in hyaluronic acid
[7] = monkey, in vivo; cited from earlier work
[8] = human, in vivo
[9] = Toxicity of indomethacin solubilized in n-methyl glucamine with hyaluronic acid in animals; format: in vivo
Method: As a major amount of soluble indomethacin may be incorporated into the formulation, or composition, the indomethacin may be solubilized using n-methyl glucamine at a dilution of 5 mg/ml of n-methyl glucamine (NMG). This substance is then passed through a […] Milipore filter to produce sterility. […] The solution of indomethacin and NMG may be mixed with, for example, "LifeCore™" hyaluronic acid in dosage amounts discussed above. This produces an appropriate mixture and can be administered safely.

[10] = system: Fisher Bladder Carcinoma tumor tissue; conditions: rat, in vivo, iv
Method: as §1, §2, §3, §4, §5, §6, §7

psoriasis = test: Topical treatment of a patient with psoriasis; format: in vivo, human (patient); conditions: carried in hyaluronic acid
Method: In another patient, a drug (methotrexate) was carried in hyaluronic acid and applied topically to a patient with psoriasis.

## CN1C(C(=O)Nc2ccccn2)=C(O)c2ccccc2S1(=O)=O [piroxicam]
[1]
  Comments on outcome (in words): nega-; also recorded: poor relief

## O=C(OCC(O)CO)c1ccccc1Nc1ccnc2c(C(F)(F)F)cccc12 (centres unmarked) [Idarac]
[1]
  Comments on outcome (in words): poor response

## O=c1[nH]cc(F)c(=O)[nH]1 [Formulation 5-FU, 5-Fluoracil]
[2]
  Radioactivity retention in tumor tissue (in words): radioactivity immediately disappeared from the tumor or the normal tissue
[3]
  Radioactivity clearance in normal tissue (skin) (in words): radioactivity immediately disappeared from the tumor or the normal tissue
[4]; 15 min after i.v.
  Radioactivity in liver: 18680 ± 625
[4]; 60 min after i.v.
  Radioactivity in liver: 5451 ± 841
[4]; 3 hrs after i.v.
  Radioactivity in liver: 2230 ± 449
[4]; 5 hrs after i.v.
  Radioactivity in liver: 1129 ± 70
[5]; 15 min after i.v.
  Radioactivity in tumor: 2810 ± 165
[5]; 60 min after i.v.
  Radioactivity in tumor: 1751 ± 149
[5]; 3 hrs after i.v.
  Radioactivity in tumor: 1493 ± 227
[5]; 5 hrs after i.v.
  Radioactivity in tumor: 853 ± 129

## COc1ccc2cc([C@H](C)C(=O)O)ccc2c1 [naproxen]
[6]
  Side effects: some side effects

## sodium hyaluronate
[7]
  Cellular infiltration of the vitreous and anterior chamber, flare, haze, pathological changes: no significant cellular infiltration of the vitreous and anterior chamber, no flare in the aqueous humour, no haze or flare in the vitreous, and no pathological changes

## O=C(c1ccccc1)c1ccc2n1CCC2C(=O)O (racemic) [Toradol™, (+/-) tromethamine salt of ketorolac]
[8]
  Side effects: there were no side effects
[6]
  Back pain: the back pain eased and disappeared for some time

## COc1ccc2c(c1)c(CC(=O)O)c(C)n2C(=O)c1ccc(Cl)cc1 [indomethacin]
[9]
  Multiple of the therapeutic dose that is non-toxic in animals: 16 fold
[6]
  Side effects: some side effects

## hyaluronic acid
[10]
  Radioactivity in tumor tissue (in words): can enhance 5-FU uptake in tumor tissue

## CN(Cc1cnc2nc(N)nc(N)c2n1)c1ccc(C(=O)N[C@@H](CCC(=O)O)C(=O)O)cc1 [methotrexate]
psoriasis
  Response of psoriasis: the psoriasis cleared
